Experimental data from the NIST ThermoML archive (doi:10.1021/je400055v).

Experiment: xn = mol fraction of the nth substance listed
Conditions: Liquid, Vibrating tube method

CCCCCCCCCCC [undecane] + CCCCCCC
Conditions	mass density [kg/m3]
362.91 K, 4000 kPa, x2 = 0.7482	649.6
362.91 K, 4027 kPa, x2 = 0.2346	681.7
362.91 K, 5000 kPa, x2 = 0.7482	650.9
362.91 K, 5028 kPa, x2 = 0.2346	682.8
362.91 K, 6000 kPa, x2 = 0.7482	652.2
362.91 K, 6029 kPa, x2 = 0.2346	683.9
362.91 K, 7000 kPa, x2 = 0.7482	653.5
362.91 K, 7031 kPa, x2 = 0.2346	685
362.91 K, 8000 kPa, x2 = 0.7482	654.7
362.91 K, 8032 kPa, x2 = 0.2346	686.1
362.91 K, 9000 kPa, x2 = 0.7482	656
362.91 K, 9033 kPa, x2 = 0.2346	687.1
362.91 K, 10000 kPa, x2 = 0.7482	657.2
362.91 K, 10035 kPa, x2 = 0.2346	688.2
362.91 K, 11000 kPa, x2 = 0.7482	658.4
362.91 K, 11036 kPa, x2 = 0.2346	689.2
362.91 K, 12000 kPa, x2 = 0.7482	659.5
362.91 K, 12037 kPa, x2 = 0.2346	690.2
362.91 K, 13000 kPa, x2 = 0.7482	660.7
362.91 K, 13038 kPa, x2 = 0.2346	691.2
362.91 K, 14000 kPa, x2 = 0.7482	661.8
362.91 K, 14040 kPa, x2 = 0.2346	692.2
362.91 K, 15000 kPa, x2 = 0.7482	662.9
362.91 K, 15041 kPa, x2 = 0.2346	693.2
362.91 K, 16000 kPa, x2 = 0.7482	664
362.91 K, 16043 kPa, x2 = 0.2346	694.1
362.91 K, 17000 kPa, x2 = 0.7482	665.1
362.91 K, 17044 kPa, x2 = 0.2346	695.1
362.91 K, 18000 kPa, x2 = 0.7482	666.2
362.91 K, 18046 kPa, x2 = 0.2346	696
362.91 K, 19000 kPa, x2 = 0.7482	667.2
362.91 K, 19047 kPa, x2 = 0.2346	696.9
362.91 K, 20000 kPa, x2 = 0.7482	668.3
362.91 K, 20049 kPa, x2 = 0.2346	697.8
362.91 K, 21000 kPa, x2 = 0.7482	669.3
362.91 K, 21083 kPa, x2 = 0.2346	698.8
362.91 K, 22000 kPa, x2 = 0.7482	670.3
362.91 K, 22086 kPa, x2 = 0.2346	699.6
362.91 K, 23000 kPa, x2 = 0.7482	671.3
362.91 K, 23089 kPa, x2 = 0.2346	700.5
362.91 K, 24000 kPa, x2 = 0.7482	672.2
362.91 K, 24092 kPa, x2 = 0.2346	701.4
362.91 K, 25000 kPa, x2 = 0.7482	673.2
362.91 K, 25095 kPa, x2 = 0.2346	702.2
362.92 K, 1001 kPa, x2 = 0.05	686.5
362.92 K, 2001 kPa, x2 = 0.05	687.6
362.92 K, 3000 kPa, x2 = 0.05	688.7
362.92 K, 4000 kPa, x2 = 0.05	689.8
362.92 K, 5000 kPa, x2 = 0.05	690.9
362.92 K, 6000 kPa, x2 = 0.05	692
362.92 K, 7000 kPa, x2 = 0.05	693
362.92 K, 8001 kPa, x2 = 0.05	694.1
362.92 K, 9000 kPa, x2 = 0.05	695.1
362.92 K, 10000 kPa, x2 = 0.05	696.1
362.92 K, 11000 kPa, x2 = 0.05	697.1
362.92 K, 12000 kPa, x2 = 0.05	698.1
362.92 K, 13000 kPa, x2 = 0.05	699.1
362.92 K, 14000 kPa, x2 = 0.05	700
362.92 K, 15000 kPa, x2 = 0.05	701
362.92 K, 16000 kPa, x2 = 0.05	701.9
362.92 K, 17000 kPa, x2 = 0.05	702.8
362.92 K, 18000 kPa, x2 = 0.05	703.7
362.92 K, 19000 kPa, x2 = 0.05	704.6
362.92 K, 20000 kPa, x2 = 0.05	705.5
362.92 K, 21000 kPa, x2 = 0.05	706.4
362.92 K, 22001 kPa, x2 = 0.05	707.3
362.92 K, 23000 kPa, x2 = 0.05	708.1
362.92 K, 24000 kPa, x2 = 0.05	708.9
362.92 K, 25000 kPa, x2 = 0.05	709.8
362.94 K, 2001 kPa, x2 = 0.5063	664.4
362.94 K, 3000 kPa, x2 = 0.5063	665.6
362.94 K, 4000 kPa, x2 = 0.5063	666.8
362.94 K, 5000 kPa, x2 = 0.5063	668
362.94 K, 6000 kPa, x2 = 0.5063	669.2
362.94 K, 7000 kPa, x2 = 0.5063	670.4
362.94 K, 8001 kPa, x2 = 0.5063	671.5
362.94 K, 9000 kPa, x2 = 0.5063	672.6
362.94 K, 10000 kPa, x2 = 0.5063	673.8
362.94 K, 11000 kPa, x2 = 0.5063	674.8
362.94 K, 12000 kPa, x2 = 0.5063	675.9
362.94 K, 13000 kPa, x2 = 0.5063	677
362.94 K, 14000 kPa, x2 = 0.5063	678
362.94 K, 15000 kPa, x2 = 0.5063	679.1
362.94 K, 16000 kPa, x2 = 0.5063	680.1
362.94 K, 17001 kPa, x2 = 0.5063	681.1
362.94 K, 18000 kPa, x2 = 0.5063	682.1
362.94 K, 19000 kPa, x2 = 0.5063	683.1
362.94 K, 20000 kPa, x2 = 0.5063	684
362.94 K, 21001 kPa, x2 = 0.5063	685
362.94 K, 22050 kPa, x2 = 0.5063	685.9
362.94 K, 23000 kPa, x2 = 0.5063	686.9
362.94 K, 24000 kPa, x2 = 0.5063	687.8
362.94 K, 25000 kPa, x2 = 0.5063	688.7
